Key:
Design in all cases: key: −: no saccharide-transferred product was detected through transfer reaction to acceptor; ±: a saccharide-transferred product was detected in an amount less than one percent through transfer reaction to acceptor; +: a saccharide-transferred product was detected in an amount over one percent but less than 10% through transfer reaction to acceptor; ++: a saccharide-transferred product was detected in an amount over ten percent through transfer reaction to acceptor
[1] = tested on: α-isomaltosylglucosaccharide-forming enzyme; experiment: Transfer-acceptor specificity, enzyme of A19 strain; assay type: biochemical, Arthrobacter globiformis A19 strain; conditions: acceptor 1.6%, PINE-DEX #100 donor 4%, one unit/g donor, 30° C., pH 8.4, 24 hours
Description: (§1) Using various saccharides, it was tested whether the saccharides were used as transferring-acceptors for α-isomaltosylglucosaccharide-forming enzyme. A solution of D-glucose, D-xylose, L-xylose, D-galactose, D-fructose, D-mannose, D-arabinose, D-fucose, D-psicose, L-sorbose, L-rhamnose, methyl-α-glucopyranoside, methyl-β-glucopyranoside, N-acetyl-glucosamine, sorbitol, α,α-trehalose, isomaltose, isomaltotriose, cellobiose, gentibiose, glycerol, maltitol, lactose, sucrose, α-cyclodextrin, β-cyclodextrin, γ-cyclodextrin, or L-ascorbic acid was prepared. To each solution with a saccharide concentration of 1.6% was added “PINE-DEX #100”, a partial starch hydrolyzate, as a saccharide donor, to give a concentration of 4%, and admixed with one unit/g saccharide donor, d.s.b., of either of purified specimens of α-isomaltosylglucosaccharide-forming enzyme from Bacillus globisporus C9 strain obtained by the method in Experiment 4-2, Bacillus globisporus C11 strain obtained by the method in Experiment 7-2, Bacillus globisporus N75 strain obtained by the method in Experiment 11-2, or Arthrobacter globiformis A19 strain obtained by the method in Experiment 15-2, and incubated at 30° C. and pH 6.0 for 24 hours, except that pH 8.4 was used for the enzyme from Arthrobacter globiformis A19 strain. The reaction mixtures of the post-enzymatic reactions were analyzed on gas chromatography (abbreviated as “GLC” hereinafter) for monosaccharides and disaccharides as acceptors, and on HPLC for trisaccharides as acceptors to confirm whether these saccharides could be used as the transfer acceptors of the above enzymes. In the case of performing GLC, the following apparatuses and conditions were used: GLC apparatus, “GC-16A” commercialized by Shimadzu Corporation, Tokyo, Japan; column, a stainless-steel column, 3 mm in diameter and 2 m in length, packed with 2% “SILICONE OV-17/CHROMOSOLV W”, commercialized by GL Sciences Inc., Tokyo, Japan; carrier gas, nitrogen gas at a flow rate of 40 ml/min under temperature conditions of increasing from 160° C. to 320° C. at an increasing temperature rate of 7.5° C./min; and detection, a hydrogen flame ionization detector. In the case of performing HPLC analysis, the following apparatuses and conditions were used: HPLC apparatus, “CCPD” commercialized by Tosoh Corporation, Tokyo, Japan; column, “ODS-AQ-303” commercialized by YMC Co., Ltd., Tokyo, Japan; eluent, water at a flow rate of 0.5 ml/min; and detection, a differential refractometer.

[2] = tested on: α-isomaltosylglucosaccharide-forming enzyme; experiment: Transfer-acceptor specificity, enzyme of C11 strain; assay type: biochemical, Bacillus globisporus C11 strain; conditions: acceptor 1.6%, PINE-DEX #100 donor 4%, one unit/g donor, 30° C., pH 6.0, 24 hours
Description: as §1

[3] = tested on: α-isomaltosylglucosaccharide-forming enzyme; experiment: Transfer-acceptor specificity, enzyme of C9 strain; assay type: biochemical, Bacillus globisporus C9 strain; conditions: acceptor 1.6%, PINE-DEX #100 donor 4%, one unit/g donor, 30° C., pH 6.0, 24 hours
Description: as §1

[4] = tested on: α-isomaltosylglucosaccharide-forming enzyme; experiment: Transfer-acceptor specificity, enzyme of N75 strain; assay type: biochemical, Bacillus globisporus N75 strain; conditions: acceptor 1.6%, PINE-DEX #100 donor 4%, one unit/g donor, 30° C., pH 6.0, 24 hours
Description: as §1

SMILES	Product of transferring reaction, Enzyme of A19 strain [1]	Product of transferring reaction, Enzyme of C11 strain [2]	Product of transferring reaction, Enzyme of C9 strain [3]	Product of transferring reaction, Enzyme of N75 strain [4]
OC[C@@H](O)[C@@H](O)[C@H](O)[C@@H](O)CO [Sorbitol, sorbitol]	−	−	−	−
O=C[C@@H](O)[C@@H](O)[C@H](O)[C@H](O)CO [D-Mannose, D-mannose]	± (a saccharide-transferred product was detected in an amount less than one percent through transfer reaction to acceptor)	−	−	−
O=C[C@H](O)[C@@H](O)[C@@H](O)[C@H](O)CO [D-Galactose, D-galactose]	± (a saccharide-transferred product was detected in an amount less than one percent through transfer reaction to acceptor)	+ (a saccharide-transferred product was detected in an amount over one percent but less than 10% through transfer reaction to acceptor)	+ (a saccharide-transferred product was detected in an amount over one percent but less than 10% through transfer reaction to acceptor)	+ (a saccharide-transferred product was detected in an amount over one percent but less than 10% through transfer reaction to acceptor)
C[C@H](O)[C@H](O)[C@@H](O)[C@@H](O)C=O [L-Rhamnose, L-rhamnose]	−	−	−	−
O=C(CO)[C@H](O)[C@H](O)[C@H](O)CO [D-Psicose, D-psicose]	+ (a saccharide-transferred product was detected in an amount over one percent but less than 10% through transfer reaction to acceptor)	+ (a saccharide-transferred product was detected in an amount over one percent but less than 10% through transfer reaction to acceptor)	+ (a saccharide-transferred product was detected in an amount over one percent but less than 10% through transfer reaction to acceptor)	+ (a saccharide-transferred product was detected in an amount over one percent but less than 10% through transfer reaction to acceptor)
CC(=O)N[C@H]1C(O)O[C@H](CO)[C@@H](O)[C@@H]1O (some centres unmarked) [N-Acetylglucosamine, N-acetyl-glucosamine]	−	+ (a saccharide-transferred product was detected in an amount over one percent but less than 10% through transfer reaction to acceptor)	+ (a saccharide-transferred product was detected in an amount over one percent but less than 10% through transfer reaction to acceptor)	+ (a saccharide-transferred product was detected in an amount over one percent but less than 10% through transfer reaction to acceptor)
O=C(CO)[C@@H](O)[C@H](O)[C@H](O)CO [D-Fructose, D-fructose]	+ (a saccharide-transferred product was detected in an amount over one percent but less than 10% through transfer reaction to acceptor)	+ (a saccharide-transferred product was detected in an amount over one percent but less than 10% through transfer reaction to acceptor)	+ (a saccharide-transferred product was detected in an amount over one percent but less than 10% through transfer reaction to acceptor)	+ (a saccharide-transferred product was detected in an amount over one percent but less than 10% through transfer reaction to acceptor)
OC[C@H]1O[C@@H]2O[C@H]3[C@H](O)[C@@H](O)[C@@H](O[C@H]4[C@H](O)[C@@H](O)[C@@H](O[C@H]5[C@H](O)[C@@H](O)[C@@H](O[C@H]6[C@H](O)[C@@H](O)[C@@H](O[C@H]7[C@H](O)[C@@H](O)[C@@H](O[C@H]8[C@H](O)[C@@H](O)[C@@H](O[C@H]9[C@H](O)[C@@H](O)[C@@H](O[C@H]1[C@H](O)[C@H]2O)O[C@@H]9CO)O[C@@H]8CO)O[C@@H]7CO)O[C@@H]6CO)O[C@@H]5CO)O[C@@H]4CO)O[C@@H]3CO [γ-Cyclodextrin, γ-cyclodextrin]	−	−	−	−
CO[C@H]1O[C@H](CO)[C@@H](O)[C@H](O)[C@H]1O [Methyl-α-glucopyranoside, methyl-α-glucopyranoside]	++ (a saccharide-transferred product was detected in an amount over ten percent through transfer reaction to acceptor)	++ (a saccharide-transferred product was detected in an amount over ten percent through transfer reaction to acceptor)	++ (a saccharide-transferred product was detected in an amount over ten percent through transfer reaction to acceptor)	++ (a saccharide-transferred product was detected in an amount over ten percent through transfer reaction to acceptor)
O=C1O[C@H]([C@@H](O)CO)C(O)=C1O [L-Ascorbic acid, L-ascorbic acid]	+ (a saccharide-transferred product was detected in an amount over one percent but less than 10% through transfer reaction to acceptor)	+ (a saccharide-transferred product was detected in an amount over one percent but less than 10% through transfer reaction to acceptor)	+ (a saccharide-transferred product was detected in an amount over one percent but less than 10% through transfer reaction to acceptor)	+ (a saccharide-transferred product was detected in an amount over one percent but less than 10% through transfer reaction to acceptor)
O=C[C@@H](O)[C@H](O)[C@@H](O)CO [L-Xylose, L-xylose]	+ (a saccharide-transferred product was detected in an amount over one percent but less than 10% through transfer reaction to acceptor)	++ (a saccharide-transferred product was detected in an amount over ten percent through transfer reaction to acceptor)	++ (a saccharide-transferred product was detected in an amount over ten percent through transfer reaction to acceptor)	++ (a saccharide-transferred product was detected in an amount over ten percent through transfer reaction to acceptor)
